Measured values: patent publication US20260324636A1, “COMPOSITION FOR PROVIDING PLANT WITH STRESS RESISTANCE” (KIRIN HOLDINGS KABUSHIKI KAISHA, priority 2022, published 2026)

How the values were obtained:
H1ZAT10 = H1ZAT10 gene expression by real-time PCR, Example 13; format: in vivo, hop; conditions: 1 mM in medium, 20° C. for 2 hours, leaves; read-out: H1ZAT10 expression level, increase vs control
Excerpt: The materials as used in Example 4 were used.
The medium as used in Example 4 were used.
In order to design primers for the target genes necessary for gene expression analysis by real-time PCR, homologs of Arabidopsis thaliana oxidation stress-responsive genes in hop were searched for. The amino acid sequences of Arabidopsis thaliana ZAT10 (AGI code: AT1G27730) and ZAT12 (AGI code: AT5G59820) were obtained from TAIR (https://www.arabidopsis.org/), and the nucleotide sequences of the gene homologs were obtained using Hopbase (http:/hopbase.cgrb.oregonstate.edu/). […] As the reference gene, the nucleotide sequence of the homolog of Arabidopsis thaliana EF1α (AGI code: AT1G18070) was obtained. The hop homolog genes were designated as H1ZAT10, H1ZAT12, and HIEF1α, respectively.
The leaves in the first and the second nodes from the apical buds of the tissue-cultured seedlings were sampled 1.5 months after the initiation of subculture and inoculated into a liquid medium consisting of a ½ Murashige and Skoog Plant Salt Mixture and 2 (w/v) % glucose. Specifically, a liquid medium was dispensed at 5 ml/well to a 6-well microplate, and 5 hop leaves were mounted thereon. […]
Thereafter, the relative expression levels of the target genes upon N-acetylglutamic acid treatment were calculated by the ΔΔCt method.

HSFA2 = test: Histone H4 acetylation level of HSFA2 by chromatin immunoprecipitation and quantitative PCR, Example 14; format: in vivo, Arabidopsis thaliana (Col-0); conditions: Arabidopsis thaliana; 0.4 mM in medium, 2 hours after application; read-out: histone H4 acetylation level of HSFA2, increase vs group not subjected to the treatment
Procedure: A wild-type Arabidopsis thaliana strain (accession: Col-0) was used as an experimental material. Seeds were purchased from Inplanta Innovations Inc.
A liquid medium containing a ½ Murashige and Skoog Plant Salt Mixture (Nacalai) and 1 (w/v) % sucrose (FUJIFILM Wako) was used as a growth medium.
Arabidopsis thaliana seeds were sterilized with the use of a Kitchen Haiter® liquid (Kao Corporation) diluted to one-half concentration with distilled water for 3 minutes, washed 3 times with sterile distilled water, and then incubated at 4° C. overnight. The growth medium (100 ml) was prepared in a 300-ml flask, the incubated seeds were seeded therein, the flask was transferred to an incubator (TOMY), and shake culture was then initiated. The incubator was maintained at a temperature of 22° C. for a daily cycle of 16 hours light and 8 hours darkness, and the rotation speed of the shaker was set at 180 rpm.
A stock solution of N-acetylglutamic acid (Tokyo Chemical Industry Co., Ltd.) was added to Arabidopsis thaliana 7 days after seeding to the final concentration of 0 mM and 0.4 mM in the media, followed by incubation for 2 hours. Sample fixation following incubation was performed in accordance with Yamaguchi et al (Arabidopsis Book, Feb. 17, 2014; 12: e0170). […]

Q: What does the source list for `CC(=O)N[C@@H](CCC(=O)O)C(=O)O` [N-acetylglutamic acid]?
A: fold induction at 1000 µM (H1ZAT10): 1.7; fold induction at 400 µM (HSFA2): 2
